Measured values taken from US20260356809A1 (The United States of America, as represented by the …, priority 2022, published 2026).
Where two headings read alike, the source gives them in different places.

Key:
human D2L receptor = biological target: T1, human D2L receptor (Homo sapiens, UniProt P14416); experiment: D2R radioligand binding, [3H]N-methylspiperone, HEK293 membranes
T1 construct: expressed in transfected cells

human D3 receptor = biological target: T2, human D3 receptor (Homo sapiens, UniProt P35462); experiment: D3R radioligand binding, [3H]N-methylspiperone, HEK293 membranes; details: for D2R Ki / D3R Ki: ratio of Ki values
T2 construct: expressed in transfected cells
T2 sequence (P35462 whole entry): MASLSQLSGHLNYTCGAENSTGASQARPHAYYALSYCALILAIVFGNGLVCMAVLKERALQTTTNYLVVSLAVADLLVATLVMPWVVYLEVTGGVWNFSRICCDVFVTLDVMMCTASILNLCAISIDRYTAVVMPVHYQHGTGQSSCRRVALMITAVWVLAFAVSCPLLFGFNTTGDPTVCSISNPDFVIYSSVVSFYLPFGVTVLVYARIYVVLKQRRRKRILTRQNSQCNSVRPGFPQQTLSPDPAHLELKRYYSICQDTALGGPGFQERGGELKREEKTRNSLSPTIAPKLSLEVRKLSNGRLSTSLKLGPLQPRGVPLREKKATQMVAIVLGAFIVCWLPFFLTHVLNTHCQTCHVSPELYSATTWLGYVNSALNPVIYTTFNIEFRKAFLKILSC

[1] = [3H]N-methylspiperone, mean ± SEM of at least three experiments, read-out: D3R Ki ± SEM

T1 sequence (P14416 whole entry): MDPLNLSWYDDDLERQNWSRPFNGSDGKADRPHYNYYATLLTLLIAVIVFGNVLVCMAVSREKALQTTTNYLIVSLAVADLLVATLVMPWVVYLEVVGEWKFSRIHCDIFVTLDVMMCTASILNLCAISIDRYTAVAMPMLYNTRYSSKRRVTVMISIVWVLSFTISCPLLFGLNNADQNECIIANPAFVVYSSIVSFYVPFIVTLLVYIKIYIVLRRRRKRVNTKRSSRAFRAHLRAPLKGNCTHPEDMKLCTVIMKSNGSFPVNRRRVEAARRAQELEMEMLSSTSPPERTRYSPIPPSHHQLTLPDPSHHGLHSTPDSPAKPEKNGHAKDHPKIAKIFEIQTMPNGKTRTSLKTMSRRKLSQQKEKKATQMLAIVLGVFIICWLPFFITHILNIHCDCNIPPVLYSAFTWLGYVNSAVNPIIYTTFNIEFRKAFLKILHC

Row | Ki (human D2L receptor; read-out: D2R Ki ± SEM) | Ki (human D3 receptor; [1]) | D2R Ki / D3R Ki (human D3 receptor; [3H]N-methylspiperone) | Ki (human D2L receptor) | Ki (human D3 receptor) | Structure (SMILES)
1 | 5.66 ± 0.89 nM | 0.438 ± 0.053 nM | 12.9 | – | – | O=C1NCCN1[C@H]1CC[C@H](CCN2CCN(c3cccc(Cl)c3Cl)CC2)CC1 [Compound 35a, 1-(trans-4-(2-(4-(2,3-Dichlorophenyl)piperazin-1-yl)ethyl)cyclohexyl)imidazolidin-2-one]
2 | 7.8 ± 1.9 nM | – | – | – | – | CCc1cccc(N2CCN(CC[C@H]3CC[C@H](NC(=O)c4cc5ccccc5[nH]4)CC3)CC2)c1Cl [Compound 10b, N-(trans-4-(2-(4-(2-Chloro-3-ethylphenyl)piperazin-1-yl)ethyl)cyclohexyl)indole-2-carboxamide]
3 | 6.06 ± 1.07 nM | 0.447 ± 0.119 nM | 13.6 | – | – | CCC(=O)N[C@H]1CC[C@H](CCN2CCN(c3cccc(Cl)c3Cl)CC2)CC1 [Compound 14i, N-(trans-4-(2-(4-(2,3-Dichlorophenyl)piperazin-1-yl)ethyl)cyclohexyl)propionamide]
4 | 9.89 ± 2.77 nM | 1.74 ± 0.46 nM | – | – | – | O=C1CCCCN1[C@H]1CC[C@H](CCN2CCN(c3cccc(Cl)c3Cl)CC2)CC1 [Compound 36b, 1-(trans-4-(2-(4-(2,3-Dichlorophenyl)piperazin-1-yl)ethyl)cyclohexyl)piperidin-2-one]
5 | – | – | – | 337 ± 24 nM | 33.8 ± 0.8 nM | CN(C)C(=O)N[C@H]1CC[C@H](CCN2CCN(c3ccc(Cl)cc3)CC2)CC1 [Compound 6g, 3-(trans-4-(2-(4-(4-Chlorophenyl)piperazin-1-yl)ethyl)cyclohexyl)-1,1-dimethylurea]
6 | – | – | 5.7 | 3440 ± 464 nM | 600 ± 136 nM | CN(C)C(=O)N[C@H]1CC[C@H](CCN2CCN(c3ncccn3)CC2)CC1 [Compound 6h, 1,1-Dimethyl-3-(trans-4-(2-(4-(pyrimidin-2-yl)piperazin-1-yl)ethyl)cyclohexyl)urea]
7 | 51.5 ± 18.6 nM | 2.37 ± 0.6 nM | 21.7 | – | – | CCCCC(=O)N[C@H]1CC[C@H](CCN2CCN(c3cccc(Cl)c3Cl)CC2)CC1 [Compound 14k, N-(trans-4-(2-(4-(2,3-Dichlorophenyl)piperazin-1-yl)ethyl)cyclohexyl)pentanamide]
8 | 25 ± 2.1 nM | 1.74 ± 0.17 nM | 14.4 | – | – | CCCOC(=O)N[C@H]1CC[C@H](CCN2CCN(c3cccc(Cl)c3Cl)CC2)CC1 [Compound 14c, Propyl (trans-4-(2-(4-(2,3-dichlorophenyl)piperazin-1-yl)ethyl)cyclohexyl)carbamate]
9 | 8.4 ± 2.43 nM | 0.965 ± 0.129 nM | – | – | – | CCOC(=O)N[C@H]1CC[C@H](CCN2CCN(c3cccc(Cl)c3Cl)CC2)CC1 [Compound 14b, Ethyl (trans-4-(2-(4-(2,3-dichlorophenyl)piperazin-1-yl)ethyl)cyclohexyl)carbamate]
10 | 25.6 ± 5.7 nM | 0.875 ± 0.178 nM | 29.3 | – | – | CCCC(=O)N[C@H]1CC[C@H](CCN2CCN(c3cccc(Cl)c3Cl)CC2)CC1 [Compound 14j, N-(trans-4-(2-(4-(2,3-Dichlorophenyl)piperazin-1-yl)ethyl)cyclohexyl)butyramide]
11 | 7.67 ± 0.69 nM | 0.268 ± 0.065 nM | 28.6 | – | ≤ 1 nM | COCC(=O)N[C@H]1CC[C@H](CCN2CCN(c3cccc(Cl)c3Cl)CC2)CC1 [Compound 14d, N-(trans-4-(2-(4-(2,3-Dichlorophenyl)piperazin-1-yl)ethyl)cyclohexyl)-2-methoxyacetamide]
12 | 41.3 ± 3.9 nM | 1.06 ± 0.32 nM | – | – | ≤ 1 nM | CCOCC(=O)N[C@H]1CC[C@H](CCN2CCN(c3cccc(Cl)c3Cl)CC2)CC1 [Compound 14e, N-(trans-4-(2-(4-(2,3-Dichlorophenyl)piperazin-1-yl)ethyl)cyclohexyl)-2-ethoxyacetamide]
13 | 5.46 ± 2.14 nM | 0.248 ± 0.101 nM | – | – | ≤ 1 nM | O=C1OCCCN1[C@H]1CC[C@H](CCN2CCN(c3cccc(Cl)c3Cl)CC2)CC1 [Compound 34b, 3-(trans-4-(2-(4-(2,3-Dichlorophenyl)piperazin-1-yl)ethyl)cyclohexyl)-1,3-oxazinan-2-one]
